Assay results: patent US20050020692A1, “Treatment of heaves” (priority 2003, published 2005)
Counter-ions that a name gives are not always drawn. Like-named read-outs stand apart in the source and are kept apart here.

Key:
[1] = system: Antigen-specific T-cell lines; assay: Antigen-specific T-cell lines: proliferation, apoptosis, cytokine secretion; assay type: cell-based, human
Experimental: Parallel lines were generated in the presence of propranolol. Cells were evaluated for proliferation, apoptosis, and cytokine secretion.

adrenergic β-2 receptors = assay: cAMP production in human PC3 cells; conditions: PC-3, read-out: EC50 for cAMP production
[2] = assay type: physicochemical
From the text: The chemical and optical purities of all batches used for biological studies have been >98%. […] No polymorphs have been detected.

[3] = system: isolated guinea pig tracheas; assay: Inhibition of airway smooth muscle contractions, isolated guinea pig tracheas; conditions: Cavia porcellus, read-out: pD2 (converted)
Experimental: The following study was performed in vitro, using isolated guinea pig tracheas. The airway smooth muscle tissues were contracted by carbachol or ovalbumin or histamine. […] Results: pD2 Values of the Enantiomers of Albuterol

[4] = system: equine bronchial smooth muscle; assay: Carbachol-induced contractions of equine bronchial smooth muscle (hyperreactivity); set-up: species or system horse; conditions: 37° C.
Experimental: In this study, segments of equine bronchial smooth muscle are mounted on special holders and immersed in a physiologic solution containing glucose and aerated with 95% O2 and 5% CO2 at 37° C. Isometric tension is measured with force transducers and registered electronically. The effects of R-, RS- and S-albuterol on carbachol-induced contractions are studied.

[5] = system: isolated human leukocytes (buffy coat); assay: A23187-stimulated histamine release from isolated human leukocytes; assay type: cell-based; conditions: for inhibition of release of the marker inflammatory mediator histamine: A23187 5 μM, 20 min/37° C., 4×10^−4 M to 10^−6 M
Experimental: In this study, histamine was the marker compound for inflammatory mediators that are released from pro-inflammatory cells. The inhibition of stimulated histamine release from isolated human leukocytes (buffy coat) by test articles was studied. The method is a modification of the methodology described by Nolte et al. (1988). Leukocytes were obtained from healthy volunteers and inflammatory mediator release was induced by incubation (20 min/37° C.) with the Ca-ionophore A23187 (5 μM) in the presence or absence of a test article. Histamine was analyzed by enzyme-immuno assays (E.I.A.), using commercially available kits and a microplate reader (MRX, Dynatech). The test articles were tested in each assay at five concentrations ranging from 4×10^−4 M to 10^−6 M, in duplicate. In the same experiment, a reference compound was tested in duplicate at eight concentrations to obtain an inhibition curve to validate the experiment (not shown here). Results: […]

[6] = system: M-form phenolsulfotransferase (M-PST); assay: Sulfotransferase activity in horse liver cytosol / intestinal mucosa; assay type: in vitro ADME
Experimental: Method: The livers from recently slaughtered horses are homogenized and the cytosol is prepared by differential centrifugation. The protein concentration of the cytosolic preparation is determined by the Lowry method (Lowry O. H. et al.: Protein measurement with the foline phenol reagent. J. Biol. Chem. 1951, 193: 265-275). […] Cytosol from the livers is incubated at 15 °C. After removal of unmetabolized beta-2 agonist with ethyl acetate, free drug is released from the conjugate using sulfatase. The concentrations of beta-2 agonist enantiomers are analyzed by chiral HPLC assay.
Results from tests with intestinal mucosa yielded the same surprising results.

[7] = horse
pro-inflammatory cells = conditions: cited from earlier work
[8] = contractile stimulus Carbachol (10^-6 M)
[9] = contractile stimulus Histamine (10^-5 M)
[10] = contractile stimulus Ovalbumin (10-5 g/ml)

| SMILES | EC50 (adrenergic β-2 receptors) [nM] | solubility in water [2] | EC50 [3, 8] [nM] | EC50 [3, 9] [nM] | EC50 [3, 10] [nM] | effect on equine bronchial smooth muscle [4] | inhibition of release of the marker inflammatory mediator histamine [5] | also measured |
| --- | --- | --- | --- | --- | --- | --- | --- | --- |
| CC(C)(C)NCC(O)c1ccc(O)c(CO)c1 (racemic) [RS-albuterol] | 207 | – | – | – | – | – | – | influence on proliferation [1]: minimal influences; cytokine production ([1]; 10(−8) mol/L each isomer): no influence |
| CC(C)(C)NC[C@H](O)c1ccc(O)c(CO)c1.Cl [R(−)-albuterol hydrochloride] | – | readily soluble | – | – | – | – | – | – |
| CC(C)(C)NC[C@H](O)c1ccc(O)c(CO)c1.CC(C)(C)NC[C@H](O)c1ccc(O)c(CO)c1.O=S(=O)(O)O [R(−)-albuterol sulfate] | – | readily soluble | – | – | – | – | – | – |
| CC(C)(C)NC[C@H](O)c1ccc(O)c(CO)c1 [R(−)-albuterol, (R)-[…]^1-[[(1,1-dimethylethyl)amino]methyl]-4-hydroxy-1,3-benzene-dimethanol, sulfate (2:1) (salt)] | 100 | – | 79.4 | 20 | 5.01 | causing bronchorelaxation | Neither R(−)-albuterol nor S(+)-albuterol inhibited the release | T-cell proliferation ([1]; 10(−7) mol/L, % of control): 61.1%±9.0%; IL-2 and IFN-gamma production ([1]; 10(−8) mol/L): inhibited; T-cell proliferation ([1]; 10(−8) mol/L): 77.0%±9.7%; intestinal or hepatic metabolism by M-form phenolsulfotransferase [6]: not to undergo intestinal or hepatic metabolism; inversion to S-albuterol [7]: no such inversion takes place |
| CC(C)(C)NC[C@@H](O)c1ccc(O)c(CO)c1 [S(+)-albuterol] | 14000 | – | 79400 | 5010 | 31600 | causing bronchial hyperreactivity | Neither R(−)-albuterol nor S(+)-albuterol inhibited the release | increase of release of histamine from leukocytes ([5]; at concentrations of 10 μM and higher): significantly and dose-dependently increased the release; influence on T-cell proliferation ([1]; S(+)-albuterol alone): No influence was observed; facilitation of release of inflammatory mediators (pro-inflammatory cells): facilitating the release |
